{"source": "patent US5248667A", "about": "“Method of treating psoriasis using synthetic peptide compositions” (The United States of America as represented by the …, priority 1991, dated 1993)", "system": "normal volunteers", "assay": "CNS or immunologic toxicity in volunteers", "type": "in vivo, human", "details": "all patients / normal volunteers", "procedure": "1. 6 male research subjects with histories of substance abuse, childhood dyslexia, and depression, have received Peptide T intravenously in doses ranging from 0.033 mg/kg to 0.133 mg/kg per day for seven days.\n2. a WM HIV seronegative normal volunteer received Peptide T both intranasally and sublingually at 12.5 mg BID for one week coincidentally reported improvement in multiple red, scaling pruritic areas located in scalp and lower neck areas. This individual has a history of mild psoriasis which, by personal choice, has been treated with only topical treatments including hydrocortisone, coal tar derivatives, and calamine lotion.\n3. No evidence of either CNS or immunologic toxicity associated with drug administration was aobserved in any of these patients in any of these normal volunteers."}
{"molecule": "C[C@@H](N)C(=O)N[C@@H](CO)C(=O)N[C@H](C(=O)N[C@H](C(=O)N[C@H](C(=O)N[C@@H](CC(N)=O)C(=O)N[C@@H](Cc1ccc(O)cc1)C(=O)N[C@H](C(N)=O)[C@@H](C)O)[C@@H](C)O)[C@@H](C)O)[C@@H](C)O", "note": "[Peptide T, D-Ala-Ser-Thr-Thr-Thr-Asn-Tyr-Thr-amide]", "values": [{"measurement": "CNS or immunologic toxicity associated with drug administration", "value": "No evidence"}]}
